In ChEMBL document CHEMBL5726115, “Triazolo compounds” (2017) one finds IC50 data, which are given here for two compounds.

As usually defined, the IC50 is the concentration that gives 50% inhibition.

In the assay the target is cAMP and cAMP-inhibited cGMP 3',5'-cyclic phosphodiesterase 10A (Homo sapiens, UniProt Q9Y233). Briefly: Inhibition Assay: The human PDE10A full length assay was performed in 96-well micro titer plates. The reaction mixture of 50 μl contained 20 mM HEPES pH=7.5/10 mM MgCl2/0.05 mg/ml BSA (Sigma cat. #A-7906), 50 nM cGMP (Sigma, cat. #G6129) and 50 nM [3H]-cGMP (GE Healthcare, cat. #TRK392 S.A. 13.2 Ci/mmol), 3.75 ng/well PDE10A enzyme (Enzo Life Science, Lausen, Switzerland cat #SE-534) with or without a specific test compound. A range of concentrations of the potential inhibitor was used to generate data for calculating the concentration of inhibitor resulting in 50% of the effect (e.g. IC50, the concentration of the competitor inhibiting PDE10A activity by 50%). Non-specific activity was tested without the enzyme. The reaction was initiated by the addition of the substrate solution (cGMP and [3H]-cGMP) and allowed to progress for 20 minutes at room temperature. The reaction was terminated by adding 25 μl of YSi-SPA scintillation beads (GE Healthcare, cat. #RPNQ0150) in 18 mM zinc sulphate solution (stop reagent). After 1 h under shaking, the plate was centrifuged one minute at 170 g to allow beads to settle. Afterwards, radioactive counts were measured on a Perkin Elmer TopCount Scintillation plate reader.
Sequence of cAMP and cAMP-inhibited cGMP 3',5'-cyclic phosphodiesterase 10A (Q9Y233 whole entry): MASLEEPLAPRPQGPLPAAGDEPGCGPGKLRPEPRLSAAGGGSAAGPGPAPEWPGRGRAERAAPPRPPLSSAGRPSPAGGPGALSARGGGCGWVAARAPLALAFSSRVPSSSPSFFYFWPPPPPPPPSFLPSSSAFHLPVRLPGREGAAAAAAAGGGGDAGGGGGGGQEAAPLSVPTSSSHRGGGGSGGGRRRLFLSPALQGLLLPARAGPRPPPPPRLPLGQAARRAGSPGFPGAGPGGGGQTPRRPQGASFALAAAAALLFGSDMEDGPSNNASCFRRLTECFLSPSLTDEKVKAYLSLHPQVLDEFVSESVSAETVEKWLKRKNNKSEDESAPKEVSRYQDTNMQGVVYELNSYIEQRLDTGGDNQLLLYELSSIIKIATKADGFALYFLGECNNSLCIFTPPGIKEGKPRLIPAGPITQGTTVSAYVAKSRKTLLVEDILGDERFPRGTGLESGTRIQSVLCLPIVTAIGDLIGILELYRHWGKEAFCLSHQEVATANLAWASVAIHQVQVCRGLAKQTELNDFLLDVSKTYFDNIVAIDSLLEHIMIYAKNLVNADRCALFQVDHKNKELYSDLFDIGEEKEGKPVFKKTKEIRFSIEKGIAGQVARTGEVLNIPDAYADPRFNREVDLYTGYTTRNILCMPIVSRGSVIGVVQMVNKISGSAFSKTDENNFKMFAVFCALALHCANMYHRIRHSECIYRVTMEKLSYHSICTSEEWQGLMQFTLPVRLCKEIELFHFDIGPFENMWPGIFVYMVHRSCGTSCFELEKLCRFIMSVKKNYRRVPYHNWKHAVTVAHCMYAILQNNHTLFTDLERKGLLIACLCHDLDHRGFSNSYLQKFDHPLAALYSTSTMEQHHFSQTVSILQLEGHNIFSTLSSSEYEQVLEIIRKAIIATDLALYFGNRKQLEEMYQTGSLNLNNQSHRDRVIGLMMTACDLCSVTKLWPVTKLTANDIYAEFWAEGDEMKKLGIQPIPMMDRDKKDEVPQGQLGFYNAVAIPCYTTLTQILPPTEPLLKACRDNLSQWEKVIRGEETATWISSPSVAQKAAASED

Turning to `Cc1nc2cc(C(F)(F)F)c(CCc3nc(N4CCCC4)nn3C)nn2c1C`, the concentration for half-maximal inhibition (IC50) was 165 nM. As for `Cc1cn2nc(C)c(C)c2nc1C#Cc1nc(N2CCCC2)nn1C`, the IC50 was 6.6 nM.
